System: human monocyte stimulated cytokine production (TNF-α)
Test: Monocyte assay (LPS-stimulated TNF-α production)
Type: cell-based
Conditions: for IC50: human CD14+ monocytes, 200 ng/mL LPS, 24 hrs, values given as 'about', read-out: pIC50 in the monocyte assay (converted); for inhibition at 0.3 µM: 300 nM, human monocytes, LPS
Method: Effect of IKK-β inhibition on human monocyte stimulated cytokine production was assessed as follows: Monocytes were isolated from heparinized whole blood by Ficoll gradient, followed by purification of CD14+ cells using MACS magnetic cell separation beads. Isolated monocytes were then adhered to 96-well culture plates at 1×10^6 cells/mL in RPMI 1640 10% FBS (JRH Biosciences, Lenexa Kans.) for 2 h. Test compounds are added to the wells 30 minutes prior to stimulation with a final vehicle concentration of 0.1% DMSO. Monocytes were activated by the addition of 200 ng/mL endotoxin (LPS; E. coli serotype 026:B6) (Sigma, St. Louis, Mo.) and incubated for 24 hrs at 37 C. Cell-free supernates were analyzed by Alphascreen™ (Perkin Elmer, Waltham, Mass.) for TNF-α using R&D Systems matched pair Abs. Viability of the cells was determined by 10% trypan blue exclusion.

Row | SMILES | IC50 | inhibition at 0.3 µM
1 | NC(=O)c1cc(-c2ccsc2)cc2c(C3CCCS(=O)(=O)C3)c[nH]c12 (stereo not drawn) [Example 219, 3-(1,1-Dioxidotetrahydro-2H-thiopyran-3-yl)-5-(3-thienyl)-1H-indole-7-carboxamide] | 5.01 to 1000 nM | 
2 | NC(=O)c1cc(-c2ccoc2)cc2c([C@H]3CCS(=O)(=O)[C@@H](c4ccccc4)C3)c[nH]c12 (racemic) [Example 250, 3-(1,1-Dioxido-2-cis-phenyltetrahydro-2H-thiopyran-4-yl)-5-(3-furanyl)-1H-indole-7-carboxamide] | 5.01 to 1000 nM | 
3 | NC(=O)c1cc(-c2ccco2)cc2c(C3CCCS(=O)(=O)C3)c[nH]c12 (stereo not drawn) [Example 218, 3-(1,1-Dioxidotetrahydro-2H-thiopyran-3-yl)-5-(2-furanyl)-1H-indole-7-carboxamide] | 5.01 to 1000 nM | 
4 | CC1(C)CC(c2c[nH]c3c(C(N)=O)cc(-c4ccc(S(=O)(=O)C5CCCC5)s4)cc23)CCS1(=O)=O (stereo not drawn) [Example 240, 5-[5-(Cyclopentylsulfonyl)-2-thienyl]-3-(2,2-dimethyl-1,1-dioxidotetrahydro-2H-thiopyran-4-yl)-1H-indole-7-carboxamide] | 5.01 to 1000 nM | 
5 | CC1(C)C[C@H](c2c[nH]c3c(C(N)=O)cc(-c4ccc(F)cc4)cc23)CCS1(=O)=O [Example 225, 3-[(4R)-2,2-dimethyl-1,1-dioxidotetrahydro-2H-thiopyran-4-yl]-5-(4-fluorophenyl)-1H-indole-7-carboxamide] | 5.01 to 1000 nM | 
6 | CC1(C)CC(c2c[nH]c3c(C(N)=O)cc(-c4csc(CN5CCCCCC5)c4)cc23)CCS1(=O)=O (stereo not drawn) [Example 231, 3-(2,2-Dimethyl-1,1-dioxidotetrahydro-2H-thiopyran-4-yl)-5-[5-(hexahydro-1H-azepin-1-ylmethyl)-3-thienyl]-1H-indole-7-carboxamide] |  | 0 to 100%
7 | NC(=O)c1cc(-c2ccc(F)cc2)cc2c(C3CCS(=O)(=O)C3)c[nH]c12 (racemic) [Example 171, (rac)-3-(1,1-Dioxidotetrahydro-3-thienyl)-5-(4-fluorophenyl)-1H-indole-7-carboxamide] | 5.01 to 1000 nM | 
8 | CC1(C)CC(c2c[nH]c3c(C(N)=O)cc(-c4ccccc4)cc23)CCS1(=O)=O (stereo not drawn) [Example 226, 3-(2,2-Dimethyl-1,1-dioxidotetrahydro-2H-thiopyran-4-yl)-5-phenyl-1H-indole-7-carboxamide] | 5.01 to 1000 nM | 
9 | CC(C)[C@@H]1C[C@H](c2c[nH]c3c(C(N)=O)cc(-c4ccsc4)cc23)CCS1(=O)=O (racemic) [Example 246, (racemic)-3-[cis-2-(1-Methylethyl)-1,1-dioxidotetrahydro-2H-thiopyran-4-yl]-5-(3-thienyl)-1H-indole-7-carboxamide] | 5.01 to 1000 nM | 
10 | CC1(C)CC(c2c[nH]c3c(C(N)=O)cc(-c4ccc(CN5CCCC5)s4)cc23)CCS1(=O)=O (stereo not drawn) [Example 235, 3-(2,2-Dimethyl-1,1-dioxidotetrahydro-2H-thiopyran-4-yl)-5-[5-(1-pyrrolidinylmethyl)-2-thienyl]-1H-indole-7-carboxamide] | 5.01 to 1000 nM | 
11 | NC(=O)c1cc(-c2ccsc2)cc2c(CC3CCS(=O)(=O)C3)c[nH]c12 (stereo not drawn) [Example 260, 3-[(1,1-Dioxidotetrahydro-3-thienyl)methyl]-5-(3-thienyl)-1H-indole-7-carboxamide] | 5.01 to 1000 nM | 
12 | CC(C)[C@H]1C[C@H](c2c[nH]c3c(C(N)=O)cc(-c4ccccc4)cc23)CCS1(=O)=O (racemic) [Example 242, racemic-3-[(trans)-2-(1-Methylethyl)-1,1-dioxidotetrahydro-2H-thiopyran-4-yl]-5-phenyl-1H-indole-7-carboxamide] |  | 0 to 100%
13 | NC(=O)c1cc(-c2csc(CN3CCCCCC3)c2)cc2c(C3CCS(=O)(=O)C3)c[nH]c12 (stereo not drawn) [Example 186, 3-(1,1-Dioxidotetrahydro-3-thienyl)-5-[5-(hexahydro-1H-azepin-1-ylmethyl)-3-thienyl]-1H-indole-7-carboxamide] |  | 0 to 100%
14 | CC(C)[C@H]1C[C@H](c2c[nH]c3c(C(N)=O)cc(-c4ccco4)cc23)CCS1(=O)=O (racemic) [Example 244, (racemic)-5-(2-Furanyl)-3-[trans-2-(1-methylethyl)-1,1-dioxidotetrahydro-2H-thiopyran-4-yl]-1H-indole-7-carboxamide] | 5.01 to 1000 nM | 
15 | COC(=O)c1cc(-c2ccc(F)cc2)cc2c([C@H]3CCSC3)c[nH]c12 [Example 173, methyl 5-(4-fluorophenyl)-3-[(3R)-tetrahydro-3-thienyl]-1H-indole-7-carboxylate] | 5.01 to 1000 nM | 
16 | NC(=O)c1cc(-c2csc(CN3CCCCCC3)c2)cc2c(C3CC4CCC(C3)S4(=O)=O)c[nH]c12 (stereo not drawn) [Example 203, 3-[(3-endo)-8,8-Dioxido-8-thiabicyclo[3.2.1]oct-3-yl]-5-[5-(hexahydro-1H-azepin-1-ylmethyl)-3-thienyl]-1H-indole-7-carboxamide] | 5.01 to 1000 nM | 
17 | NC(=O)c1cc(-c2ccoc2)cc2c(C3CCCS(=O)(=O)C3)c[nH]c12 (stereo not drawn) [Example 217, 3-(1,1-Dioxidotetrahydro-2H-thiopyran-3-yl)-5-(3-furanyl)-1H-indole-7-carboxamide] |  | 0 to 100%

Second part, led by results:

Row | IC50 | SMILES | inhibition at 0.3 µM
18 | 5.01 to 1000 nM | CC(C)(O)CCc1ccc(-c2cc(C(N)=O)c3[nH]cc(C4CCS(=O)(=O)CC4)c3c2)s1 [Example 66, 3-(1,1-Dioxidotetrahydro-2H-thiopyran-4-yl)-5-[5-(3-hydroxy-3-methylbutyl)-2-thienyl]-1H-indole-7-carboxamide] | 
19 | 5.01 to 1000 nM | CN(C)Cc1cc(-c2cc(C(N)=O)c3[nH]cc(CC4CCS(=O)(=O)C4)c3c2)cs1 (stereo not drawn) [Example 261, 5-{5-[(Dimethylamino)methyl]-3-thienyl}-3-[(1,1-dioxidotetrahydro-3-thienyl)methyl]-1H-indole-7-carboxamide] | 
20 | 5.01 to 1000 nM | NC(=O)c1cc(-c2cccs2)cc2c(C3CCS(=O)(=O)C3)c[nH]c12 (stereo not drawn) [Example 190, 3-(1,1-Dioxidotetrahydro-3-thienyl)-5-(2-thienyl)-1H-indole-7-carboxamide] | 
21 | 5.01 to 1000 nM | COCc1ccc(-c2cc(C(N)=O)c3[nH]cc(C4CCS(=O)(=O)CC4)c3c2)s1 [Example 98, 3-(1,1-Dioxidotetrahydro-2H-thiopyran-4-yl)-5-{5-[(methyloxy)methyl]-2-thienyl}-1H-indole-7-carboxamide] | 
22 | 5.01 to 1000 nM | NC(=O)c1cc(-c2nccs2)cc2c(C3CCS(=O)(=O)CC3)c[nH]c12 [Example 85, 3-(1,1-Dioxidotetrahydro-2H-thiopyran-4-yl)-5-(1,3-thiazol-2-yl)-1H-indole-7-carboxamide] | 
23 | 5.01 to 1000 nM | COCCN(C)Cc1cc(-c2cc(C(N)=O)c3[nH]cc(C4CCS(=O)(=O)CC4)c3c2)cs1 [Example 71, 3-(1,1-Dioxidotetrahydro-2H-thiopyran-4-yl)-5-[5-({methyl[2-(methyloxy)ethyl]amino}methyl)-3-thienyl]-1H-indole-7-carboxamide] | 
24 | 5.01 to 1000 nM | NC(=O)c1cc(-c2csc(CCCO)c2)cc2c(C3CCS(=O)(=O)CC3)c[nH]c12 [Example 84, 3-(1,1-Dioxidotetrahydro-2H-thiopyran-4-yl)-5-[5-(3-hydroxypropyl)-3-thienyl]-1H-indole-7-carboxamide] | 
25 | 5.01 to 1000 nM | CC(C)[C@H](C)NCc1cccc(-c2cc(C(N)=O)c3[nH]cc(C4CCS(=O)(=O)CC4)c3c2)c1 [Example 80, 5-[3-({[(1S)-1,2-Dimethylpropyl]amino}methyl)phenyl]-3-(1,1-dioxidotetrahydro-2H-thiopyran-4-yl)-1H-indole-7-carboxamide] | 
26 | > 1000 nM | NC(=O)c1cc(-c2nc(Br)cs2)cc2c(C3CCS(=O)(=O)CC3)c[nH]c12 [Example 83, 5-(4-Bromo-1,3-thiazol-2-yl)-3-(1,1-dioxidotetrahydro-2H-thiopyran-4-yl)-1H-indole-7-carboxamide] | 
27 | 5.01 to 1000 nM | CCN(C)Cc1cc(-c2cc(C(N)=O)c3[nH]cc(C4CCS(=O)(=O)CC4)c3c2)cs1 [Example 75, 3-(1,1-Dioxidotetrahydro-2H-thiopyran-4-yl)-5-(5-{[ethyl(methyl)amino]methyl}-3-thienyl)-1H-indole-7-carboxamide] | 
28 | 5.01 to 1000 nM | CCN(CC)Cc1cc(-c2cc(C(N)=O)c3[nH]cc(C4CCS(=O)(=O)CC4)c3c2)cs1 [Example 76, 5-{5-[(diethylamino)methyl]-3-thienyl}-3-(1,1-dioxidotetrahydro-2H-thiopyran-4-yl)-1H-indole-7-carboxamide] | 
29 | 5.01 to 1000 nM | CN(C)Cc1cc(-c2cc(C(N)=O)c3[nH]cc(C4CCS(=O)(=O)C(C)(C)C4)c3c2)cs1 (stereo not drawn) [Example 232, 5-{5-[(Dimethylamino)methyl]-3-thienyl}-3-(2,2-dimethyl-1,1-dioxidotetrahydro-2H-thiopyran-4-yl)-1H-indole-7-carboxamide] | 
30 | > 1000 nM | Cc1n[nH]c(C)c1-c1cc(C(N)=O)c2[nH]cc(C3CCS(=O)(=O)CC3)c2c1 [Example 140, 5-(3,5-Dimethyl-1H-pyrazol-4-yl)-3-(1,1-dioxidotetrahydro-2H-thiopyran-4-yl)-1H-indole-7-carboxamide] | 
31 | 5.01 to 1000 nM | CN(C)Cc1cccc(-c2cc(C(N)=O)c3[nH]cc(C4CCS(=O)(=O)CC4)c3c2)c1 [Example 79] | 
32 | 5.01 to 1000 nM | NC(=O)c1cc(-c2ccccc2)cc2c(C3CCS(=O)(=O)CC3)c[nH]c12 [Example 1, 3-(1,1-Dioxidotetrahydro-2H-thiopyran-4-yl)-5-phenyl-1H-indole-7-carboxamide] | 
33 | 5.01 to 1000 nM | NC(=O)c1cc(-c2csc(CC3CC3)c2)cc2c(C3CCS(=O)(=O)CC3)c[nH]c12 [Example 97, 5-[5-(Cyclopropylmethyl)-3-thienyl]-3-(1,1-dioxidotetrahydro-2H-thiopyran-4-yl)-1H-indole-7-carboxamide] | 

— US8071584B2 (GlaxoSmithKline LLC, priority 2007, dated 2011)
